Measured values as given in ChEMBL document CHEMBL4433219, “EC18 as a Tool To Understand the Role of HCN4 Channels in Mediating Hyperpolarization-Activated Current in Tissues” (ACS Med Chem Lett, 2019).

Key:
[1] = target: T1, Potassium/sodium hyperpolarization-activated cyclic nucleotide-gated channel 4 (Homo sapiens) (UniProt Q9Y3Q4); experiment: Inhibition of human HCN4 expressed in HEK293 cells assessed as reduction in hyperpolarization activated current at 5 uM at holding potential of -80 mV by patch clamp assay relative to control; assay type: cell-based
T1 sequence (whole entry): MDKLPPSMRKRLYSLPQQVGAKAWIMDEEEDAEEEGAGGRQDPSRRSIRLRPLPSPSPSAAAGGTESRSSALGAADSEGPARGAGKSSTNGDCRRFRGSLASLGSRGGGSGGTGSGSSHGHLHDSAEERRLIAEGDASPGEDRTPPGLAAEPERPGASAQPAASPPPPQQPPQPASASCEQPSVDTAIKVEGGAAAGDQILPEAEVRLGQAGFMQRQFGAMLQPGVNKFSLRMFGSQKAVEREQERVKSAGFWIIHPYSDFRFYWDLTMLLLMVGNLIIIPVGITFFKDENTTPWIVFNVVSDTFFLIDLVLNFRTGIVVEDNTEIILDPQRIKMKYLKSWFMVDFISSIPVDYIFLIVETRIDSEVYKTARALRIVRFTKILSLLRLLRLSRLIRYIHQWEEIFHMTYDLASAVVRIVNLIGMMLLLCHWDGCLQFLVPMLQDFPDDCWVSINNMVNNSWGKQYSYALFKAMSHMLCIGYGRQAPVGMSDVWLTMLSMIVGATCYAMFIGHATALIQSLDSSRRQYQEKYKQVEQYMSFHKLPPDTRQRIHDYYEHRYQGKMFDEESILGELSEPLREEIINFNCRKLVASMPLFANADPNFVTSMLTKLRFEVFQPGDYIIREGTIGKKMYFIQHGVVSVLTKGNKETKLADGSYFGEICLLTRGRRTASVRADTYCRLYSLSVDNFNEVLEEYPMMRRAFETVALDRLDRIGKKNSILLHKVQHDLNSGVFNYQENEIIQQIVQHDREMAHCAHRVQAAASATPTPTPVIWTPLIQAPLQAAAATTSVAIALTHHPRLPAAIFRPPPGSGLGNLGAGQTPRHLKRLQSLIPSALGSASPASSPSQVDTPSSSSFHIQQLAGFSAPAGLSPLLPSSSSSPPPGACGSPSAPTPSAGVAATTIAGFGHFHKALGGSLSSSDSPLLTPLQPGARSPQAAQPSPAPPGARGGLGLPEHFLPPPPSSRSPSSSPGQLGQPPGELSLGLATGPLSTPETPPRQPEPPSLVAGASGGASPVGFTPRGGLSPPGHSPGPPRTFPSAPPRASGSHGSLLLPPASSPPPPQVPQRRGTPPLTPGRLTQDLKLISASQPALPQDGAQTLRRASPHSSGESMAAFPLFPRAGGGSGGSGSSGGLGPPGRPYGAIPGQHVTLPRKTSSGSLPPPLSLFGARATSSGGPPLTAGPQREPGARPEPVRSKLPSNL

[2] = target: T2, Potassium/sodium hyperpolarization-activated cyclic nucleotide-gated channel 4 (Homo sapiens, UniProt Q9Y3Q4); experiment: Inhibition of human HCN4 expressed in HEK293 cells assessed as reduction in hyperpolarization activated current at holding potential of -80 mV by patch clamp assay; assay type: cell-based
T2 sequence (Q9Y3Q4 whole entry): T1 sequence (whole entry)

[3] = target: T3, Potassium/sodium hyperpolarization-activated cyclic nucleotide-gated channel 2 (Mus musculus, UniProt O88703); experiment: Inhibition of mouse HCN2 expressed in HEK293 cells assessed as reduction in hyperpolarization activated current at holding potential of -80 mV by patch clamp assay; assay type: cell-based
T3 sequence (O88703 whole entry): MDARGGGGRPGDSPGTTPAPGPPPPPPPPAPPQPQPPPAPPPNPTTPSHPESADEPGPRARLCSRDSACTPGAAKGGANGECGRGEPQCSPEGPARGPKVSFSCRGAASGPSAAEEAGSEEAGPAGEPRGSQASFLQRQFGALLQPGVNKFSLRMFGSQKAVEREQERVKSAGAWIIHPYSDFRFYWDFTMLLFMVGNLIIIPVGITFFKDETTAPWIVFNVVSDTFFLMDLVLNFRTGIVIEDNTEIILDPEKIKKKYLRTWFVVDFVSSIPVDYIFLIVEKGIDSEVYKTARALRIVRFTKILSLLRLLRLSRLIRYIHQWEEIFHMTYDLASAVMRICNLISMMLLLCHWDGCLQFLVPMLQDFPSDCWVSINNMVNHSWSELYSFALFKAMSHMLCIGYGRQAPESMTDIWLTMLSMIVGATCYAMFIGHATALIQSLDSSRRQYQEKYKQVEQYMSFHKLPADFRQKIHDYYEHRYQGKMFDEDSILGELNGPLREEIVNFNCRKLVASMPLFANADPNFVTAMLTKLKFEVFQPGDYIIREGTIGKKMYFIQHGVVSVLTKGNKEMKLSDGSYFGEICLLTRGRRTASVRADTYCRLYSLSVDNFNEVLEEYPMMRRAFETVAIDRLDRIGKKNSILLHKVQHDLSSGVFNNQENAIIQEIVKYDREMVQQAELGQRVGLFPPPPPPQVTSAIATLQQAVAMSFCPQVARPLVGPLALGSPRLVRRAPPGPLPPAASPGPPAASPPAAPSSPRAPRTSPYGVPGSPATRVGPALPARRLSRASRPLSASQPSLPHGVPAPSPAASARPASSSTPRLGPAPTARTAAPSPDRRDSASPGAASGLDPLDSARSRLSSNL

[4] = Selectivity ratio of EC50 for human HCN2 to EC50 for mouse HCN4
[5] = test system: Cardiac muscle of left ventricle; experiment: (§1) Effect on cardiac electrophysiological profile in Mongrel perfused dog heart left ventricular muscle stimulated at basic cycle length of 1000 milliseconds assessed as action potential amplitude at 1 uM measured after 25 mins by glass capillary microelectrode based electrophysiology assay (reference value: 104.1 +/- 2.7 mV); assay type: functional, Canis lupus familiaris
[6] = test system: Cardiac muscle of left ventricle; experiment: as §1, with “potential time duration” for “potential amplitude”, “at 90% of repolarization at 10” for “at 1”, “value: 212.5” for “value: 104.1”, “+/- 16.25 milliseconds)” for “+/- 2.7 mV)”; assay type: functional, Canis lupus familiaris
[7] = test system: Cardiac muscle of left ventricle; experiment: as §1, with “potential time duration” for “potential amplitude”, “at 10% of repolarization at 10” for “at 1”, “value: 69.9” for “value: 104.1”, “+/- 10.84 milliseconds)” for “+/- 2.7 mV)”; assay type: functional, Canis lupus familiaris
Mus musculus = organism: Mus musculus; experiment: Effect on voltage-dependent K+ channel in C57BL/6J mouse thalamocortical relay neuron assessed as inhibition of step depolarization-induced K+ outward current at 10 uM by whole cell patch clamp assay relative to control

inhibition [1]: 59%
EC50 [2]: 3.98 µM
EC50 [3]: 19.3 µM
Ratio EC50 [4]: 5
inhibition (Mus musculus): 14.5%
Compound: COc1ccc(CCN(C)[C@@H]2CCC[C@H](N3CCc4cc(OC)c(OC)cc4CC3=O)C2)cc1OC (racemic)
Activity [5]: 103.1 mV
Time [6]: 220.2 ms
Time [7]: 55.7 ms
